Holding throughout (format): in vivo
One assay deals with DR5:venus marker. Briefly: auxin activity by DR5:venus fluorescence in Arabidopsis plants. To be noted: 10 μM. How it is done: Imaging was performed using an SP8 Leica confocal microscope including solid-state lasers producing 405, 488, 514 and 552 nm light, and hybrid or PMT detectors. Objectives were either PL APO 20×/0.75, WD 0.62 mm or PL APO 63×/1.2 WD 0.3 mm. For fluorescence measurements, the Imaris™ spot detection option (Bitplane A.G.) was used to segment nuclei and calculate the average signal intensity.
One technique for assessing auxin activity of the 4-CPA amino acid conjugates utilized plants expressing nucleus-localized, fluorescent DR5:venus marker, the expression level of which is an indicator of intracellular auxin activity [Laskowski et al., PLoS Biol 2008, 6:e307]. Four days old seedlings grown on regular MS medium were transferred to plates containing 10 μM of the tested compounds and fluorescence was inspected by confocal microscope after 24 hours.
In order to assess the ability of the abovementioned sodium salts to penetrate the cells and activate an auxin response, an Arabidopsis DR5-Venus model was utilized (as described hereinabove). The plants were exposed to 10 μM of each compound for 24 hour; MS medium was used as a negative control, and the related Compounds 1p, 1r and 1t were used as positive controls.

Assay [1] concerns cuttings from mature Eucalyptus grandis trees. Briefly: rooting of cuttings from mature Eucalyptus grandis trees. To be noted: 100 μM compound by submerging or spraying, with 6000 ppm IBA.
Assay [2] concerns avocado rootstock cuttings. The assay is described as follows: rooting of avocado rootstock cuttings. To be noted: vc51 rootstock, IBA with compound. The text has this:
Avocado rootstock is extremely difficult to root. Currently, the common technique for propagating clones of avocado rootstock is to graft the desired rootstock on a seedling, and transfer to the dark to generate an etiolated branch. This branch can be rooted and grafted with the desired variety while still grafted on the seed [Frolich & Platt, California Avocado Society 1971-72 Yearbook 1972, 55:97-109]. However, the preparation of such twice-grafted seedlings is time-consuming and expensive.
The ability of exemplary conjugates to promote rooting in green avocado cuttings (in the presence of IBA) was therefore examined. In particular, Compounds 2h (MCPA-methanol), 4b (NAA-β-alanine methyl ester), 3g (2-DP-methyl-4-aminobenzoate), 3f (2-DP-p-toluidine), 1l (4-CPA-morpholine) and is (4-CPA-D-Trp) were tested.
Exemplary conjugates were also tested for rooting the hard-to-root species of avocado (VC801 rootstock) and argan, according to procedures described hereinabove.

Another assay deals with Arabidopsis seedlings. The assay is described as follows: root elongation inhibition in Arabidopsis seedlings. Conditions: 50 nM, after 5 days. As for the experimental part:
Adventitious roots (ARs) were induced in intact plants, using previously described procedures [Gutierrez et al., Plant Cell 2009, 21:3119-3132; Abu-Abied et al., Plant J 2012, 71:787-799; Rasmussen et al., Plant Physiol 2012, 158:1976-1987]. Briefly, seeds were germinated on MS/0.8% agar plates supplemented with 3% sucrose. The plates were kept in the dark for 2 days at 4° C., then 5 days at 22° C. in the dark, 2 days in the light, 3 days in the dark and then additional 4 days in the light to complete 2 weeks when roots were counted using a stereoscope. Sensitivity to auxin and/or auxin analogs was determined by following root elongation on vertical plates. The 4-day-old seedlings were transferred to MS plates containing 0.05 or 0.5 μM IAA and the root length was measured after 5 days, including the number of LRs in each root and calculation of the LR density. Each treatment experiment included 10-15 plants and was repeated 3 times.
A common technique for evaluating auxin activity is by determining the ability of a compound to inhibit root elongation [Zolman et al., Genetics 2000, 156:1323-1337]. In order to use this assay for comparing auxin activities of different conjugates, the minimum concentration of free 4-CPA that is active in the root elongation inhibition assay was determined. Four days old seedlings were placed in vertical plates containing increasing concentrations of 4-CPA. The root lengths were marked daily during 5 days.
Based on the above results, the effect of conjugates of 4-CPA (Compounds 1o-1t) on root elongation after 5 days was determined at concentrations of 50 nM.

The next assay has as its system mung bean cuttings. Briefly: rooting of mung bean cuttings (number of adventitious roots per cutting). To be noted: for effect on AR formation in mung bean cuttings, in words: tested at 2, 10 or 50 μM. As for the experimental part:
Mung bean cuttings have been used for many years as a model for assessing the effect of plant hormones and synthetic chemicals on the rooting process. In the present study, this system was used to ascertain activity of conjugates in inducing adventitious root (AR) formation, and to evaluate the rate of conjugate hydrolysis that releases the free active auxin. […] The rooting activity in this system is determined by the number of adventitious roots per cutting.
The mung bean model was used to examine the activity of conjugates of three phenoxy acids, 4-CPA, MCPA, and 2-DP, on rooting. For comparison, plants were treated with (unconjugated) IBA or with 2-DP conjugated to glycine methyl ester (Gly-ME).

Assay [3] relates to Pinus halepensis cuttings. The assay is described as follows: rooting and root development in pine cuttings. To be noted: 400 ppm IBA potassium salt + 5 ppm conjugate, 4 hours dip; 12 weeks. As for the experimental part: The effects of exemplary D-amino acid conjugates of 4-CPA (Compounds to and Is) on rooting in Pinus halepensis cuttings were compared with those of 2-DP-glycine methyl ester conjugate (2-DP-Gly). Rooting mature pine cuttings (i.e., cuttings that are taken from trees more than 4 years old) is very difficult.
Apical cuttings were taken from 7-year-old trees, stored for 4 weeks at 4° C., and treated by dipping the cutting bases for 4 hours in the following solution: 400 ppm IBA potassium salt+5 ppm tested conjugate+0.1% Amistar™ fungicide (250 grams/liter azoxystrobin). The cuttings were evaluated after 12 weeks.

Assay [4] relates to cuttings from mature Eucalyptus grandis trees. Briefly: rooting of cuttings from mature Eucalyptus grandis trees. Conditions: 100 μM conjugate without IBA, or 28 mM (6000 ppm) IBA alone; submerging base or spraying; scored after 45-60 days. How it is done: Eight-year-old Eucalyptus grandis plants were grown from seeds and placed in a net house in 20 liter pots containing peat and tuff (70:30, v/v), drip irrigated and fertilized with 3 liters of Shefer™ 737 liquid fertilizer (ICL Fertilizers, Israel) per cubic meter of water. Cuttings were collected from branches which grew 2-2.5 meters above the ground. Cuttings were 2-3 mm thick branches, 15 cm long, with 1-2 pairs of leaves. The leaf blades were cut in half to decrease transpiration. Cuttings were treated with 6000 ppm IBA (potassium indole-3-butyric acid) for 1 minute with or without 100 μM of each tested compound. The tested compounds were either applied to the base of the cutting, with or without IBA and/or sprayed on the foliage in the presence of 0.05% Triton™ X-100 surfactant. Cuttings were rooted in rooting tables heated to 25° C. under constant 90% humidity, in a controlled-climate greenhouse. The rooting medium contained crushed polystyrene foam: vermiculite no. 3: pit (3:2:1, v/v/v). Rooting was recorded after 30-60 days. Roots system architecture was analyzed by WinRHIZO™ system scanner and software.
Exemplary conjugates prepared as described in Example 1 were tested for their ability to promote adventitious root (AR) formation in cuttings from mature eucalyptus (Eucalyptus grandis) trees. In this model, AR formation is difficult to induce, with 5-15% root development in the presence of IBA potassium salt [Abu-Abied et al., Plant J 2012, 71:787-799], such that effective AR formation indicates a potent root formation activity.
Various concentrations and mode of applications were tested for each compound in the presence or absence of IBA (the “gold standard” rooting enhancer). A concentration of 100 μM of each conjugate was used for an initial screen of 37 conjugates, in which the compounds were applied to the base of the cutting by dipping (submerging the cutting base in a solution of the conjugate for one minute) or to the foliage by spraying. After 45 days, the cuttings were scored for the presence of callus or roots.
Conjugates prepared as described herein were evaluated in a Eucalyptus grandis rooting model, according to procedures such as described hereinabove. The bases of cuttings (a 12-15 cm long branch with the two upper leaves, whose blades were cut in half) were dipped in a solution containing 6000 ppm IBA potassium salt and 50 μM of conjugate for 1 minute, and the leaves were sprayed with 50 μM of the same conjugate (mixed with 0.5% Triton™ X-100 surfactant). The cuttings were imbedded in a heated (25° C.) rooting table containing a 1:2:3 ratio of peat:vermiculite:polystyrene, under 90% relative humidity.

Where [5] appears, read: Table 1, 50 μM, water control 29.6.
Setting [6] is: Table 1, 10 μM, water control 29.6.

Regarding `O=C([O-])C[C@H](NC(=O)COc1ccc(Cl)cc1)C(=O)[O-].[Na+].[Na+]` [Compound 84, 4-CPA-L-Asp disodium salt], the “DR5 fluorescence (auxin activity), in words” value with DR5:venus marker is “did not promote DR5 activity”.
For `Cc1ccc(NC(=O)C(C)Oc2ccc(Cl)cc2Cl)cc1` (centres unmarked) [Compound 3f, 2-DP-p-toluidine], in assay [1], the “rooting in combination with IBA compared with IBA alone, in words” value (“rooting … compared with IBA alone, in words” below) is recorded as “enhanced rooting in comparison with IBA alone”. Besides, the “roots per cutting of green avocado branches compared with etiolated branches treated with IBA, in words” value in assay [2] was “considerably more roots per cutting”. The “rooting success rate of green avocado branches, in words” value in assay [2] (compared with IBA alone) was “considerably enhanced the rooting success rate”.
Take `COC(=O)C[C@H](NC(=O)COc1ccc(Cl)cc1)C(=O)OC` [Compound 1r, 4-CPA-L-Asp-methyl diester]: in the assay with Arabidopsis seedlings, the “effect on root elongation relative to control, in words” value is “inhibited root elongation relative to control”. In addition, the “rooting … compared with IBA alone, in words” value in assay [1] is recorded as “at least as potent as that of their corresponding D-amino acid conjugates”. Also, the “rooting of mung bean cuttings (number of roots per cutting)” value (“rooting … (number of roots per cutting)” below) with mung bean cuttings (Table 2, 2 μM) came to 121; with mung bean cuttings (Table 2, 10 μM) it was 34; in the assay on mung bean cuttings (Table 2, 50 μM) it was 0. Moreover, the “effect on AR formation in mung bean cuttings, in words” value (shortened to “effect on AR formation”) in the assay with mung bean cuttings is on record as “exhibited more activity than the D-Asp-methyl ester conjugate”.
Consider `COC(=O)C[C@@H](NC(=O)COc1ccc(Cl)cc1)C(=O)OC` [Compound 1q, 4-CPA-D-Asp-methyl diester], for which the “effect on root elongation relative to control, in words” value in the assay on Arabidopsis seedlings is “did not affect root elongation”. For the same molecule, the “rooting … (number of roots per cutting)” value in the assay with mung bean cuttings (Table 2, 2 μM) was found to be 67; in the assay with mung bean cuttings (Table 2, 10 μM) it was 0; in the assay with mung bean cuttings (Table 2, 50 μM), 0.
As to `CC(C)[C@H](NC(=O)COc1ccc(Cl)cc1)C(=O)[O-].[Na+]` [Compound 83, 4-CPA-L-Val sodium salt], in the assay with DR5:venus marker, the “DR5 fluorescence (auxin activity), in words” value is on record as “about as active as their non-water soluble methyl esters”.
Take `COC(=O)C(C)Oc1ccc(Cl)cc1Cl` (centres unmarked) [Compound 3h, 2-DP-methanol]: the “rooting … compared with IBA alone, in words” value in assay [1] was “enhanced rooting in comparison with IBA alone”.
Take `COC(=O)CNC(=O)C(C)Oc1ccc(Cl)cc1Cl` (centres unmarked) [Compound 2-DP-Gly, reference compound]: in assay [3], the “Degree of root development Medium (%)” value came out at 6.6%, the “Degree of root development Weak (%)” value was determined as 46.7%, the “Degree of root development Well-developed (%)” value was found to be 46.7% and the “Rooting rate (%)” value is given as 87.5%. For the same molecule, the “rooting … (number of roots per cutting)” value in the assay on mung bean cuttings (setting [5]) is given as 97.2. In addition, the “effect on AR formation” value in the assay with mung bean cuttings is given as “positively correlated to dose”.
As for `Cc1ccc(NC(=O)COc2ccc(Cl)cc2)cc1` [Compound 1f, 4-CPA-p-toluidine], the “rooting … compared with IBA alone, in words” value in assay [1] was “enhanced rooting in comparison with IBA alone”. Moreover, the “rooting … (number of roots per cutting)” value in the assay on mung bean cuttings (setting [6]) and in the assay with mung bean cuttings (setting [5]) was 0 throughout.
In the case of `COC(=O)CNC(=O)COc1ccc(Cl)cc1` [Compound 4-CPA-Gly, 4-CPA-Gly-methyl ester], the “rooting … compared with IBA alone, in words” value in assay [1] is “exhibited lower rooting activity than the other conjugates”. In addition, the “appearance of the base of mung bean cuttings” value in the assay on mung bean cuttings (FIGS. 4A, 4B) is listed as “appeared swollen, but no AR developed”. In the assay on mung bean cuttings, the “effect on AR formation” value is given as “induced a similar rooting rate only at the lowest tested concentration of 2 μM”.
As for `O=C(COc1ccc(Cl)cc1)NCCO` [Compound 1a, 4-CPA-ethanolamine], in assay [1], the “rooting … compared with IBA alone, in words” value is reported as “enhanced rooting in comparison with IBA alone”. The “rooting … (number of roots per cutting)” value was determined as 49.5 in the assay on mung bean cuttings (setting [6]) and 14.9 in the assay on mung bean cuttings (setting [5]). For the same molecule, in assay [4], the “percentage of cuttings which exhibited rooting, stand-alone treatment” value came to 15%.
Turning to `COC(=O)c1ccc(NC(=O)COc2ccc(Cl)cc2)cc1` [Compound 1g, 4-CPA-methyl-4-aminobenzoate], the “rooting … compared with IBA alone, in words” value in assay [1] was “enhanced rooting in comparison with IBA alone”. Besides, the “rooting … (number of roots per cutting)” value in the assay on mung bean cuttings (setting [6]) and in the assay on mung bean cuttings (setting [5]) was 0 in each case.
In the case of `COC(=O)CCNC(=O)COc1ccc(Cl)cc1` [Compound 1b, 4-CPA-β-alanine methyl ester], the “rooting … compared with IBA alone, in words” value in assay [1] is recorded as “enhanced rooting in comparison with IBA alone”. Besides, the “rooting … (number of roots per cutting)” value in the assay on mung bean cuttings (setting [6]) and in the assay with mung bean cuttings (setting [5]) was 0 in each case.
